Like-named read-outs stand apart in the source and are kept apart here.
Molecular target: T1, VAV1 (Homo sapiens, UniProt P15498+Q96SW2)
T1 construct: A heterozygous VAV1 C-terminal HiBiT knock-in pool was generated at Monte Rosa Therapeutics from a clonal Jurkat cell; endogenous in cells; host or cells: Jurkat clone stably expressing LgBiT, homozygous GSPT1-G575N; heterozygous VAV1-HiBiT knock-in pool
Experiment: VAV1 degradation activity, VAV1-HiBiT knock-in Jurkat luminescence assay (Example A, Table 1)
Assay type: cell-based
Conditions: VAV1-HiBiT knock-in Jurkat cells, luminescence read at 6 and 24 hours; for Dmax: Jurkat
Method in brief: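 Jurkat cells carrying VAV1-HiBiT knock-in, plated in RPMI/10% FBS with Endurazine live-cell substrate and pre-incubated ~16 h at 37° C. Compound dosed from 10 μM stock; luminescence read 6 and 24 h later. Response normalised to plate negative/positive controls, EC50 from 3-parameter logistic fit (hillslope 1).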

[1] = read-out: VAV1 DC50 (nM), class

| Dmax (read-out: VAV1 Dmax %) | Dmax (read-out: VAV1 Dmax %, class) | DC50 (read-out: VAV1 DC50) | DC50 [1] | SMILES |
| --- | --- | --- | --- | --- |
| 83.9% | 60 to 90% | 193 nM | 100 to 1000 nM | O=C1CCC(c2cccc(-c3ccc(CN4CC5CCCN5CC4=O)cc3)c2Cl)C(=O)N1 (stereo not drawn) [Compound 260] |
| 95.8% | > 90% | 6.62 nM | ≤ 100 nM | CC1CCCN(c2ccc(-c3cccc(C4CCC(=O)NC4=O)c3Cl)cc2)C1=O (stereo not drawn) [Compound 329] |
| 87.5% | 60 to 90% | 42.7 nM | ≤ 100 nM | O=C1CCC(c2cccc(-c3ccc(CN4CCCC4=O)cc3)c2Cl)C(=O)N1 (stereo not drawn) [Compound 206, 3-(2-chloro-4′-((2-oxopyrrolidin-1-yl)methyl)-[1,1′-biphenyl]-3-yl)piperidine-2,6-dione] |
| 95.5% | > 90% | 15.2 nM | ≤ 100 nM | O=C1CCC(c2cccc(-c3ccc(Cc4ccon4)cc3)c2Cl)C(=O)N1 (stereo not drawn) [Compound 455, 3-(2-chloro-4′-(isoxazol-3-ylmethyl)-[1,1′-biphenyl]-3-yl)piperidine-2,6-dione] |
| 83.8% | 60 to 90% | 50.9 nM | ≤ 100 nM | COC1CCCC(=O)N1Cc1ccc(-c2cccc(C3CCC(=O)NC3=O)c2Cl)cc1 (stereo not drawn) [Compound 271] |
| 86.7% | 60 to 90% | 43.3 nM | ≤ 100 nM | O=C1CCC(c2cccc(-c3ccc(CN4CCC(F)C4=O)cc3)c2Cl)C(=O)N1 (stereo not drawn) [Compound 289] |
| 84.1% | 60 to 90% | 240 nM | 100 to 1000 nM | Nc1nccn1Cc1ccc(-c2cccc(C3CCC(=O)NC3=O)c2Cl)cc1 (stereo not drawn) [Compound 102] |
| 96.2% | > 90% | 24.8 nM | ≤ 100 nM | O=C1CCC(c2cccc(-c3ccc(N4C(=O)Cc5ccccc54)cc3)c2Cl)C(=O)N1 (stereo not drawn) [Compound 468, 3-(2-chloro-4′-(2-oxoindolin-1-yl)-[1,1′-biphenyl]-3-yl)piperidine-2,6-dione] |
| 95.3% | > 90% | 9.94 nM | ≤ 100 nM | CN1CCCN(Cc2ccc(-c3cccc(C4CCC(=O)NC4=O)c3Cl)cc2)C1=O (stereo not drawn) [Compound 424, 3-(2-chloro-4′-((3-methyl-2-oxotetrahydropyrimidin-1(2H)-yl)methyl)-[1,1′-biphenyl]-3-yl)piperidine-2,6-dione] |
| 87.5% | 60 to 90% | 69.6 nM | ≤ 100 nM | O=C1CCC(c2cccc(-c3cnc(N4C(=O)CCCC45CC5)c(F)c3)c2Cl)C(=O)N1 (stereo not drawn) [Compound 362, 3-(2-chloro-3-(5-fluoro-6-(5-oxo-4-azaspiro[2.5]octan-4-yl)pyridin-3-yl)phenyl)piperidine-2,6-dione] |
| 93.1% | > 90% | 21.3 nM | ≤ 100 nM | O=C1CCC(c2cccc(-c3ccc(CN4CC5CC5C4=O)cc3)c2Cl)C(=O)N1 (stereo not drawn) [Compound 291] |
| 96.8% | > 90% | 9.8 nM | ≤ 100 nM | O=C1CCC(c2cccc(-c3ccc(-n4cccc(C(F)(F)F)c4=O)cc3)c2Cl)C(=O)N1 (stereo not drawn) [Compound 226, 3-(2-chloro-4′-(2-oxo-3-(trifluoromethyl)pyridin-1(2H)-yl)-[1,1′-biphenyl]-3-yl)piperidine-2,6-dione] |
| 92% | > 90% | 26 nM | ≤ 100 nM | O=C1CCC(c2cccc(-c3ccc(Cn4ccccc4=O)cc3)c2Cl)C(=O)N1 (stereo not drawn) [Compound 156, 3-(2-chloro-4′-((2-oxopyridin-1(2H)-yl)methyl)-[1,1′-biphenyl]-3-yl)piperidine-2,6-dione] |
| 93.8% | > 90% | 10.1 nM | ≤ 100 nM | O=C1CCC(c2cccc(-c3ccc(CN4C(=O)CCC45CC5)cc3)c2Cl)C(=O)N1 (stereo not drawn) [Compound 296] |
| 87.6% | 60 to 90% | 37.2 nM | ≤ 100 nM | O=C1CCC(c2cccc(-c3ccc(CN4CCn5nccc5C4=O)cc3)c2Cl)C(=O)N1 (stereo not drawn) [Compound 275] |

Reference: US12257247B2 (Monte Rosa Therapeutics AG, priority 2023, dated 2025)
